Reference: US20090062255A1, “TUMOR-TARGETING EVALUATION METHODOLOGY AND COMPOUNDS RELATED THERETO” (THALLION PHARMACEUTICALS INC., priority 2007, published 2009)
Several values for one entry are separate records, joined by “and”; a condition that tells them apart may be missing. Equal entries are not always repeated.

Columns and labels:
[1] = ECO-4601 concentrations in plasma and tissues, rat C6 orthotopic brain tumors; type: in vivo; details: individual rats
Experimental: Rat C6 glioma cells were purchased from the American Type Culture Collection (Manessa, Va.) and grown in Dulbecco's modified Eagle's medium (DMEM) supplemented with 10% FBS, 125 U/mL penicillin G, 125 μg/mL streptomycin sulfate, and 2.2 μg/mL amphotericin B (Fungizone). All culture reagents were obtained from Gibco BRL (Invitrogen Burlington, ON, Canada). Cultures were grown in monolayers and maintained at 37° C. in a humidified atmosphere of 5% CO2. Upon reaching confluency, spheroids were prepared using the hanging drop method previously described by Del Duca et al. ((2004) J. Neurooncol 67, p 295). Briefly, 20 μl drops of DMEM containing 15,000 cells each were suspended from the lids of culture dishes and the resulting aggregates were transferred to culture dishes base-coated with agar after 72 hours. The resulting spheroids were adequate for in vivo implantation after 48 hours of incubation on agar.
Male, Sprague-Dawley rats (250-300 g) (Charles River Canada, St Constant, QC) were anesthetized with 50 mg/kg ketamine and 10 mg/kg xylazine. The right cortical surface in the parietal-occipital region was exposed by craniectomy using a high-powered drill (DREMEL, USA) and the underlying dura and its vessels were carefully removed under a surgical microscope. A piece of the cortex was removed to expose the underlying white matter and a single speroid containing rat C6 tumor cells was placed into the surgical defect. The craniectomy was covered with bone wax (Ethicon, Peterborough, Canada) and the overlying skin sutured. Following recovery from anesthesia, the animals were fed and had access to water ad libitum.
Following completion of in vivo studies, animals were sacrificed by anesthetic overdose and decapitated. Brain, tumor, and liver were snap-frozen in liquid nitrogen and stored frozen (−70° C.±10° C.). For blood samples, each blood sample was collected into a K2-EDTA tube and kept on wet ice for a maximum of 30 minutes. Blood samples were centrifuged under refrigeration (2 to 8° C.) for 10 minutes at 1,500 g (RCF). A volume of 25 μL of aqueous 4% w/v L-ascorbic acid was added to a volume of 225 μL of rat plasma in a clean tube, and the samples were thoroughly mixed by inversion. A volume of 125 uL of the resulting mixture was transferred to a separate tube for bioanalysis, while the remaining mixture was maintained as a backup, and both the bioanalysis and back-up portions were frozen on dry ice and stored frozen (−70° C.±10° C.).
Rat plasma (50 μL) was mixed with 500 μL of acetone containing 100 ng/mL of the internal standard (Compound 2). The mixture was vortexed for 20 seconds, incubated 10 min at RT and centrifuged at 12,000×g for 10 minutes. The supernatants were transferred into HPLC injection vials and 20 μL were analyzed by tandem liquid chromatography/mass spectrometry. The chromatography was achieved on a Luna C18 column (30×4.6 mm, 5 μm particles; Phenomenex, Torrance, Calif.) with a mobile phase consisting of 100% methanol: 0.5% formic acid in water (85:15) at a flow rate of 1 mL/min. Flow was split 1:10 prior to introduction into the ESI source. The nebulization was assisted by and octagonal jet stream of nitrogen heated at […] and set at a flow of 4 L/min. The ion source voltage (ISV) was at 4000 V in positive mode, declustering potential (OR-QO) was set to 20 V, and the collision energy (Elab) was set to 25 V. The mass transition monitered for ECO-4601 and the internal standard were m/z 463→271 and 477→273, respectively. […]

[2] = test system: phosphorylation of Raf-1 and ERK1/2 (Ras-MAPK signaling pathway); assay: Western blot of EGF-induced Raf-1 and ERK1/2 phosphorylation in tumor cells; type: cell-based, human; details: 10 μM
Experimental: The effect of ECO-4601 on downstream events of Ras signaling was subsequently examined by monitoring the phosphorylation levels of Raf-1 and ERK1/2 by Western blot analysis. To study the effect of ECO-4601 on the Ras-MAPK signaling pathway, exponentially growing cells (human breast MCF-7 tumor cells, human breast MDA-MB-231 tumor cells, human glioma U 87-MG tumor cells and human prostate PC-3 tumor cells) were seeded onto 60 mm tissue culture dishes (0.5 to 0.8×10^6 cells per dish) for 24 h. The media was removed and cells were treated with 10 μM ECO-4601 in culture medium supplemented with 0.1% FBS for 30 min, 1 h, 4 h and 6 h, and subsequently exposed to EGF at 50 ng/mL for 10 min at 37° C. Control plates consisted of cells incubated in culture medium containing 0.1% FBS and 0.05% DMSO (vehicle) with or without EGF stimulation. At the end of each treatment, media was removed and cells rinsed with ice-cold PBS. Cells were then harvested by scraping and cell pellets were lysed in ice-cold RIPA buffer for 20 minutes on ice. Unsolubilized material was pelleted and discarded. The protein concentration of each lysate was quantified using the Bio-Rad protein assay (Bio-Rad Laboratories). Equivalent amounts of protein (20-30 μg protein) were separated on 10% or 12% SDS-PAGE under reducing conditions, transferred onto nitrocellulose membranes (0.2 μm; Bio-Rad Laboratories) and blotted as above with phospho-c-Raf (Ser338) and c-Raf (Cell Signaling Technology Inc., Boston, Mass.), phospho-p44/42 (Thr2O2/Tyr204, p-ERK1/2) and p44/42 (ERK1/2) MAP Kinases (Cell Signaling Technology Inc.) and GAPDH (SantaCruz Biotechnology Inc.).

[3] = test system: human breast cell line MCF-7; assay: Growth inhibitory MTT assay, MCF-7; type: cell-based; details: 72 hours, treated over control
Experimental: Growth inhibitory activity of ECO-4601 (Compound 1) and other dibenzodiazepinone analogs was evaluated on a panel of 4 human tumor cell lines: the human uterine sarcoma MES-SA and its doxorubicin-resistant P-glycoprotein over-expressing variant, MES-SA/DX5 as well as non-aggressive and highly aggressive human breast cell lines, MCF-7 and MDA-MB-231, respectively. These four cell lines were obtained from the American Type Culture Collection (Manassas, Va.) and cultured in RPMI plus 10% fetal bovine serum (FBS) and maintained at 37° C. with 5% CO2.
Exponentially growing cells (5,000 cells per well time; cell number determined with a hemocytometer) were seeded in 96-well flat-bottom plates and allowed to grow overnight. Cells were then incubated for 72 hours with three different concentrations of ECO-4601 or analogs: 30,10, and 3 μM. The in vitro growth inhibitory activity was determined by a commercial MTT assay. All measurements were done in quadruplicate and each experiment was performed 2-3 times. The lower the value, the more cytotoxic is the compound.

[4] = test system: HT-29, SF268, MDA-MB-231 and PC-3 cell lines; assay: In vitro cytotoxic activity against four cell lines (overall statement); type: cell-based; details: second test
From the text: Procedures used for each series of tests are described below.
Compound 2 has an unexpected increase in cytotoxic activity compared to parent Compound 1. […] Cytotoxic activity (GI50) of Compound 2 for the other three strains was outside the expected range of concentrations used in the first tests.

## CC(C)=CCC/C(C)=C/CC/C(C)=C/CN1C(=O)c2cccc(O)c2Nc2c(O)cc(O)cc21 [Compound 1, 10-farnesyl-4,6,8-trihydroxy-5,10-dihydrodibenzo[b,e][1,4]diazepin-11-one]
[1]
  Ratio Tumor/Brain: 10.1 and 2.1 and 5.2 and 11.30 and 3.5
  Tumor: 2701 ng/g and 239 ng/g and 509 ng/g and 2891 ng/g and 1145 ng/g
[1]; C6 orthotopic brain tumor
  Brain: 249 ng/g and 115 ng/g and 98 ng/g and 254 ng/g and 327 ng/g
  Liver: 994 ng/g and 164 ng/g and 1083 ng/g and 2767 ng/g and 123 ng/g
  Pasma ng/mL: 13,088 ng/mL and 2,657 ng/mL and 5,727 ng/mL and 10,212 ng/mL and 1,177 ng/mL
[2]
  amount of total Raf-1: decrease
  time to complete inhibition of protein phosphorylation: ≤ 6 h
[2]; MCF-7, MDA-MB-231, U 87-MG and PC-3 cells
  inhibition of EGF-induced phosphorylation of Raf-1 and ERK1/2: strong inhibition
[3]
  % T/C at 10 μM: 44%

## CC(C)=CCC/C(C)=C/CC/C(C)=C/CN1C(=O)c2cccc(O)c2N(C)c2c(O)cc(O)cc21 [Compound 2, 10-farnesyl-4,6,8-trihydroxy-5-methyl-5,10-dihydro-dibenzo[b,e][1,4]diazepin-11-one]
[4]
  increase in potency compared to Compound 1: 100 fold
